Like-named read-outs stand apart in the source and are kept apart here.
What was measured:
[1] = test system: HepG2 cells; test: Cell stress panel (CSP), 24 h, 8 concentrations, BIFROST global PoD; format: cell-based; details: HepG2; cell stress panel PoD
Procedure: Compounds were tested using the previously developed cell stress panel ([Hatherell et al. 2020]) and the expanded biomarker panel outlined in Middleton et al. HepG2 cells were treated with all compounds for 24 h across 8 concentrations prior to biomarker analysis. The same plate layout and number of replicates (3 biological and 2 technical) were used as previously for each assay within the panel.

[2] = molecular target: Voltage-dependent L-type Ca2+ channel (dihydropyridine site), CACNA1C (r) (Rattus norvegicus, UniProt P22002); format: binding
Chain of Voltage-dependent L-type Ca2+ channel (dihydropyridine site), CACNA1C (r) (P22002 whole entry): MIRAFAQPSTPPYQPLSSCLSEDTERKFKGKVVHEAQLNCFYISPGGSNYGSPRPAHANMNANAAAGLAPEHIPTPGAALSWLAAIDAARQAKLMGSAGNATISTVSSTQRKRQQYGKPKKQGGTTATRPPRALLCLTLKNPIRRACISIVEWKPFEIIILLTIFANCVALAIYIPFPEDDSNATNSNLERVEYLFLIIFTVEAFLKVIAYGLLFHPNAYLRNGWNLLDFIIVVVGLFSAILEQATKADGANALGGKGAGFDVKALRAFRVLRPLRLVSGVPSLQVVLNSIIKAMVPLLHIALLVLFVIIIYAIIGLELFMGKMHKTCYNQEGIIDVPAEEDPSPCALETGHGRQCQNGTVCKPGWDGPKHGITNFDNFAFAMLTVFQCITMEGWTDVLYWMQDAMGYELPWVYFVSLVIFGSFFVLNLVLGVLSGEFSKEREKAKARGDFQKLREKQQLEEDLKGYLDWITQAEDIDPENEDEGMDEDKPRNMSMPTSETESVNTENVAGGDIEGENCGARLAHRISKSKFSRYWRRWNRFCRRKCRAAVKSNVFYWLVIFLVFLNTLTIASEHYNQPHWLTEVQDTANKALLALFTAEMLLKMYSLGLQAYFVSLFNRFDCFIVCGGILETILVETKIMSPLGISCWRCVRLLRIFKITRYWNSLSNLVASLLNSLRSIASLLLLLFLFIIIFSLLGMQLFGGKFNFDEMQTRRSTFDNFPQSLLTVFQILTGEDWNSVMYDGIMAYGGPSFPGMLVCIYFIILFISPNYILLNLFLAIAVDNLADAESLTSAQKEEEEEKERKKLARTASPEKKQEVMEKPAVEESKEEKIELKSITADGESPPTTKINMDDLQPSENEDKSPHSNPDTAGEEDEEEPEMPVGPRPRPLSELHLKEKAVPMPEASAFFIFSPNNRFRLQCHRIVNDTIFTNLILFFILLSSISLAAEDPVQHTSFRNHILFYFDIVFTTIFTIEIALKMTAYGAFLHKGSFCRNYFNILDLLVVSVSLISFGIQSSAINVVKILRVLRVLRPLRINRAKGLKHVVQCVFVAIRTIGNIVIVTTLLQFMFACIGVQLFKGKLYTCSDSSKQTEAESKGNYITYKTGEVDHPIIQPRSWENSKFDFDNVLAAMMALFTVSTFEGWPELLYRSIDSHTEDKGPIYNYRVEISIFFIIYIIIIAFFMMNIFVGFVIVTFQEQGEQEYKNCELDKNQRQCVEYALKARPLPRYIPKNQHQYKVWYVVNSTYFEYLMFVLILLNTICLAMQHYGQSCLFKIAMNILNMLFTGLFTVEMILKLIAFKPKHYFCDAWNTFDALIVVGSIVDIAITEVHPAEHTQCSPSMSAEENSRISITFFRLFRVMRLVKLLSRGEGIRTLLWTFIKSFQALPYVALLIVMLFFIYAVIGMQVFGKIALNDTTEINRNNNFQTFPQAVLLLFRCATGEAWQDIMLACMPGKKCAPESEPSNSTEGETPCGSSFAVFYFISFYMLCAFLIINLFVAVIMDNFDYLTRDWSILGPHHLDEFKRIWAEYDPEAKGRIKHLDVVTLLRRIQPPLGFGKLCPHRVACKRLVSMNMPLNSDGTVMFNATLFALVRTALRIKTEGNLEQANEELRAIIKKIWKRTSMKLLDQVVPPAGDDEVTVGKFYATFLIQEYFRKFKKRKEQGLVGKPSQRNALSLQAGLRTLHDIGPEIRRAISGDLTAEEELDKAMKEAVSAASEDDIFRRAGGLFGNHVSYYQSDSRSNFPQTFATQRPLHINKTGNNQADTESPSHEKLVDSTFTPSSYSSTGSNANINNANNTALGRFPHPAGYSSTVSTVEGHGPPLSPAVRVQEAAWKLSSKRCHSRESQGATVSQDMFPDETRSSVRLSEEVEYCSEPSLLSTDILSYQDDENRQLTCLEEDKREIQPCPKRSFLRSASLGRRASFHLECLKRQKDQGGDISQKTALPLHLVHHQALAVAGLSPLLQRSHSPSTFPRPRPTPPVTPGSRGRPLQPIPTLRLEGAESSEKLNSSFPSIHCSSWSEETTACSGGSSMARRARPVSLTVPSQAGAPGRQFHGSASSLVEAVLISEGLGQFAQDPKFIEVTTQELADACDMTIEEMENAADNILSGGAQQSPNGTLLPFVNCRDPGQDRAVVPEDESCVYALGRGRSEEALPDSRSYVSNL

[3] = cited from earlier work
[4] = test system: Tubulin (r); test: IPP Tubulin binding; set-up: species or system rat; details: 100 uM; ligand/control Colchicine
[5] = PBK level L2; taken or scaled from references (median where several); ref [6],[7],[10],[19]; cited from earlier work
[6] = test system: Sodium channel protein type 5 subunit alpha (site 2), SCN5A (r); format: binding, rat
[7] = test system: HepaRG cells; test: High-throughput transcriptomics (HTTr, TempO-Seq), HepaRG, 24 h; format: cell-based, human; details: HepaRG; for pod_httr_bifrost PoD: HTTr BIFROST PoD; for podl_path_minbmd PoD: HTTr minimum pathway BMD(L)
Procedure: (§1) HepG2, HepaRG, and MCF7 cells were treated with each compound for 24 h across a dose range of 7 concentrations and lysed using TempO-Seq lysis buffer (BioSpyder Technologies, proprietary kit, see [Middleton et al. 2022] for method details). Sequencing was performed using TempO-Seq (BioClavis) version 2 of the human whole transcriptome panel and analyzed as described previously in Middleton et al.

[8] = test system: Potassium Voltage-Gated Channel Kv non-selective, KCNQ1 (r); test: IPP KCNQ1 binding (antagonist radioligand); set-up: species or system rat; details: IPP screening at 100 uM; control α-dendrotoxin
[9] = test system: HepG2 cells; test: High-throughput transcriptomics (HTTr, TempO-Seq), HepG2, 24 h; format: cell-based, human; details: HepG2; for pod_httr_bifrost PoD: HTTr BIFROST PoD; for podl_path_minbmd PoD: HTTr minimum pathway BMD(L)
Procedure: as §1

[10] = test system: Glutamate receptor ionotropic NMDA 1 non-selective, GRIN1 (r); details: IPP screening at 100 uM; control CGS 19755
[11] = Assignment of risk classifications to benchmark chemical-exposure scenarios; details: for risk: Oral, Therapeutic, Tablet, from table S1
[12] = hepatic intrinsic clearance (Clint); details: PBK level L3; optimised against clinical data; per chemical [8],[9],[14],[16],[22],[24],[25],[29],[30],[32]
[13] = molecular target: T1, Adenosine receptor A2a, ADORA2A (h) (Homo sapiens, UniProt P29274); test: IPP ADORA2A binding (agonist radioligand); details: IPP screening at 100 uM; control NECA
T1 construct: purchased Eurofins Cerep (SafetyScreen44-based IPP panel)
T1 sequence (P29274 whole entry): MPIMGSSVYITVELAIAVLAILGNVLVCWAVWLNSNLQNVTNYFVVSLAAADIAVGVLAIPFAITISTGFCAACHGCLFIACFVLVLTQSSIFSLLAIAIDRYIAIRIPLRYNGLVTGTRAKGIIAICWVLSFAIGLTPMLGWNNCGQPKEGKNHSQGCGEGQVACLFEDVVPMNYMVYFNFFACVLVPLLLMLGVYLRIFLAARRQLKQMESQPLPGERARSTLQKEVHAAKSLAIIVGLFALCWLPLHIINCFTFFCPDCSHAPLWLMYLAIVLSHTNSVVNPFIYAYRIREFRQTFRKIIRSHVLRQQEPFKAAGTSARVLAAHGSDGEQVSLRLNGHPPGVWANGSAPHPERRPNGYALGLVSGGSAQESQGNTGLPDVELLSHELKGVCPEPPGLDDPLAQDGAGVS

[14] = test system: Gamma-aminobutyric acid receptor subunit alpha-1 BZD site, GABRA1A (r); format: binding, rat; details: IPP screening at 100 uM; control diazepam
[15] = test system: Thyroid hormone receptor alpha, THRA (h); test: IPP THRA coactivator recruitment (agonist); format: biochemical, human; details: 100 uM; agonist; T3; * denotes assay interference (2-Amino-6-chloro-4-nitrophenol, HC Red 3)
[16] = single value or median, ref [2],[4],[6],[7],[8],[10],[11],[15],[18],[27],[34], cited from earlier work
[17] = test system: 63 targets with known safety liabilities; test: In vitro pharmacological profiling (IPP) panel, screening at 10 or 100 µM and dose response, minimum IC50/AC50; format: biochemical; details: lowest AC50 across IPP panel (systemic targets); cell_type -; read-out: ipp_lowest_ac50_systemic PoD
[18] = test system: MCF7 cells; test: High-throughput transcriptomics (HTTr, TempO-Seq), MCF7, 24 h; format: cell-based, human; details: MCF-7; for pod_httr_bifrost PoD: HTTr BIFROST PoD; for podl_path_minbmd PoD: HTTr minimum pathway BMD(L)
Procedure: as §1

[19] = test system: rat; details: cited from earlier work; for PoD (NOAEL): rat
[20] = molecular target: T2, Estrogen receptor, ER1 (h) (Homo sapiens, UniProt P03372); test: IPP ER1 coactivator recruitment (agonist); format: biochemical; details: 100 uM, estriol, * denotes assay interference (2-Amino-6-chloro-4-nitrophenol, HC Red 3)
T2 construct: purchased Eurofins Cerep (SafetyScreen44-based IPP panel)
T2 sequence (P03372 1-595): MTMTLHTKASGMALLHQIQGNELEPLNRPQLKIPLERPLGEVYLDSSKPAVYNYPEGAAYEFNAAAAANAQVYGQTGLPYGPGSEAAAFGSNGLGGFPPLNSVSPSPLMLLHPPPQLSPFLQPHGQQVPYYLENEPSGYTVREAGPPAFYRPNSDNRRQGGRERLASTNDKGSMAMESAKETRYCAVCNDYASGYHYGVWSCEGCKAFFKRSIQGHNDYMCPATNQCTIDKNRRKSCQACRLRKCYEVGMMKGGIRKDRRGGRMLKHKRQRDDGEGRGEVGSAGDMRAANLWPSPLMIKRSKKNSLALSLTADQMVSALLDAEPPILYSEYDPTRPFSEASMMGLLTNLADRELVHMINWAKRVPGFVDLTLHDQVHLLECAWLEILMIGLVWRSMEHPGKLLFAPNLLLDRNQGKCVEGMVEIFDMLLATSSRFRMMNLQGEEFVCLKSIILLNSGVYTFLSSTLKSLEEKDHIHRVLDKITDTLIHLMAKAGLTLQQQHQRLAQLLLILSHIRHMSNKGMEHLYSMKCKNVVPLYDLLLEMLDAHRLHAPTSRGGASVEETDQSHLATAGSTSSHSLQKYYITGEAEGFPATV

[21] = molecular target: Potassium voltage-gated channel subfamily H member 2 hERG, KCNH2 (h) (Homo sapiens, UniProt Q12809); details: human, 100 µM
Chain of Potassium voltage-gated channel subfamily H member 2 hERG, KCNH2 (h) (Q12809 whole entry): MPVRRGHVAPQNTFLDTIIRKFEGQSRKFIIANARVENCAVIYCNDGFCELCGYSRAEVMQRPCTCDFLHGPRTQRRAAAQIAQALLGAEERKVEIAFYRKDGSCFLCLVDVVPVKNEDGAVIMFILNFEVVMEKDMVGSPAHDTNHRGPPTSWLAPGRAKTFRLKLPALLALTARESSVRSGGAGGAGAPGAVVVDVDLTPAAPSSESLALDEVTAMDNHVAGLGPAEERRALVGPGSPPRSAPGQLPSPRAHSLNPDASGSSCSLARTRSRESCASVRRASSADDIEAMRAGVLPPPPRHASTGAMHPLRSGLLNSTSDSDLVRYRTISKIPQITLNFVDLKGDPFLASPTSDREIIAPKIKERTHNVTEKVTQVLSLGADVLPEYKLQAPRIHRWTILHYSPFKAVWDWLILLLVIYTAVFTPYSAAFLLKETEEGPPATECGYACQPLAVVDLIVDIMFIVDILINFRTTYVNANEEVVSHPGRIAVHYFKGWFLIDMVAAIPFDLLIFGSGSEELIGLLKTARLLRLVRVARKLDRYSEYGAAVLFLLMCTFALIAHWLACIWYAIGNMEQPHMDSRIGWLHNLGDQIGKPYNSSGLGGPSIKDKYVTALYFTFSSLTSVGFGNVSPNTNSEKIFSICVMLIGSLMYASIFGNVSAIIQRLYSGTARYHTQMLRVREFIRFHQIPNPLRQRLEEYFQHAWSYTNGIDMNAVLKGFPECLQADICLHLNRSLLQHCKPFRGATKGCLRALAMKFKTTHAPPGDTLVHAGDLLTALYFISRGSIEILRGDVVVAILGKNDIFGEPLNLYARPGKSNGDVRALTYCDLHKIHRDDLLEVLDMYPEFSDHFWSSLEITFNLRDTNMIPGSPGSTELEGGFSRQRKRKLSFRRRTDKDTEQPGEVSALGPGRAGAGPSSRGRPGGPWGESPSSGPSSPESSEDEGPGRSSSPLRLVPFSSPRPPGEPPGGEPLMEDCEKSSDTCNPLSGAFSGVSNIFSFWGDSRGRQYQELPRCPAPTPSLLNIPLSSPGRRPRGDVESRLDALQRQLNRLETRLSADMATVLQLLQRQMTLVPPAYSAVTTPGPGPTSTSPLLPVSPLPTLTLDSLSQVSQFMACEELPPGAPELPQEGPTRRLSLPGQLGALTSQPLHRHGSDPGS

[22] = molecular target: T2, Estrogen receptor, ER1 (h); test: IPP ER1 coactivator recruitment (antagonist); format: biochemical; details: 100 uM, estriol, * denotes assay interference (2-Amino-6-chloro-4-nitrophenol, HC Red 3)
[23] = human
[24] = skin penetration (PBK input); details: PBK level L2, [28] (ibuprofen)
[25] = IV bolus 4 mg, patients hospitalized with community-acquired pneumonia, calibration, ref Spoorenberg et al. 2014
[26] = Oral tablet 6 mg, fasted, 6 female healthy Asian, validation, ref Jobe et al. 2020
[27] = Oral tablet 6 mg, fasted, patients hospitalized with community-acquired pneumonia, validation, ref Spoorenberg et al. 2014
[28] = neurological effects, ref SCCS/1582/16
[29] = optimised based on [21] (glutaraldehyde), [23] (HCRed3)

Row | Compound | pod_cell_stress PoD [1] | IPP screening %, Specific binding [4] | Intrinsic Liver Clearance [5] | pod_httr_bifrost PoD [7] | podl_path_minbmd PoD [7] | Specific binding [8] | pod_httr_bifrost PoD [9] | podl_path_minbmd PoD [9] | Specific binding [10] | Specific binding [13] | Specific binding [14] | IPP screening %, Coactivator recruitment [15] | Fup ([16]; PBK level L2) | AC50 [17] | pod_httr_bifrost PoD [18] | podl_path_minbmd PoD [18] | further results
1 | C[C@@H]1C[C@H]2[C@@H]3CCC4=CC(=O)C=C[C@]4(C)[C@@]3(F)[C@@H](O)C[C@]2(C)[C@@]1(O)C(=O)CO [Dexamethasone, 9-Fluoro-11beta,17,21-trihydroxy-16alpha-methylpregna-1,4-diene-3,20-dione] | 14.5194 µM | -8.0% | 107.8 L/h | 3.5452 µM | 74.2662 µM | -4.1% | 0.0003269 µM | 69.6957 µM | 10.7% | -9.1% | 27.9% | 3.0% | 26.3% | 3.15 nM | 9.79e-05 µM | 6.367 µM | Specific binding [2]: -36.4%; Reported AUC0-t [3, 25]: 507.3 ng·h/mL; Reported cmax [3, 25]: 0.0964 µg/mL; Reported tmax [3, 25]: 0 h; Reported AUC0-t [3, 26]: 689.3 ng·h/mL; Reported cmax [3, 26]: 0.0822 µg/mL; Reported tmax [3, 26]: 1.53 h; Reported AUC0-t [3, 27]: 746.6 ng·h/mL; Reported cmax [3, 27]: 0.0643 µg/mL; Reported tmax [3, 27]: 1.4 h; Specific binding [6]: 11.2%; Risk Classification ([11]; Oral tablet 0.5 mg/day): High risk; Risk Classification ([11]; Oral tablet 10 mg/day): High risk; risk ([11]; 0.5mg/day, Exp3): 1; risk ([11]; 10mg/day, Exp4): 1; Intrinsic Liver Clearance [12]: 23.37 L/h; Fup ([16]; PBK level L3): 26.3%; PoD (NOAEL) ([19]; endocrine toxicity study, ref ECFA ADI): 0.001 mg/kg bw/day
2 | CCOc1cc(CCC(C)=O)ccc1O [Ethylzingerone, 4-(3-Ethoxy-4-hydroxyphenyl)butan-2-one] | 17.0917 µM | 16.0% | – | 29.321 µM | 291.446 µM | 0.7% | 11.971 µM | 445.376 µM | -16.9% | 4.5% | -2.5% | 4.0% | – | 1390 nM | 11.821 µM | 119.724 µM | IPP screening %, Coactivator recruitment [20]: 2.0%; Specific binding ([6]; IPP screening at 100 uM, control veratridine): 8.8%; IPP screening %, Specific binding [21]: 0.2%; IPP screening %, Coactivator recruitment [22]: -14.0%; risk [23]: 0; local NOAEL ([19]; 90 day oral rat study, ref SCCS/1582/16): 300 mkd; BMD [19, 28]: 220 mkd; BMDL [19, 28]: 110 mkd; PoD (NOAEL) ([19]; 90 day oral rat study, ref ToxRefDB/Paul-Friedman et al. (2020)/regulatory opinions): 100 mg/kg bw/day
3 | Nc1ccc(NCCO)c([N+](=O)[O-])c1 [HCRed3] | – | – | 248.1 L/h | – | – | – | – | – | – | – | – | – | 62.28% | – | – | – | Diffusivity Dermis [24, 29]: 1.00E-08 cm^2/s; Diffusivity Stratum Corneum [24, 29]: 1.00E-08 cm^2/s; Diffusivity Viable Epidermis [24, 29]: 1.00E-10 cm^2/s; Partition Coefficient Stratum Corneum/Water ([24]; optimised based on [21] (glutaraldehyde), [23] (HCRed3), no reference printed (DEET)): 1.50; Diffusivity Vehicle ([24]; optimised based on [23] (HCRed3)): 1.00E-05 cm^2/s
